Measurements as given in US12146183B2, “Compound and a method for identifying a protein using said compound” (CITY UNIVERSITY OF HONG KONG, priority 2020, dated 2024).
Where a SMILES comes first, the peptide text is derived from it. The star is where a group is joined. ξ: configuration not given here. Lipoyl(6ξ) = O=C(CCCCC1CCSS1)*

T1: Sirt2 (Homo sapiens, UniProt Q8IXJ6)
T1 construct: made in house
T1 sequence (Q8IXJ6 1-389): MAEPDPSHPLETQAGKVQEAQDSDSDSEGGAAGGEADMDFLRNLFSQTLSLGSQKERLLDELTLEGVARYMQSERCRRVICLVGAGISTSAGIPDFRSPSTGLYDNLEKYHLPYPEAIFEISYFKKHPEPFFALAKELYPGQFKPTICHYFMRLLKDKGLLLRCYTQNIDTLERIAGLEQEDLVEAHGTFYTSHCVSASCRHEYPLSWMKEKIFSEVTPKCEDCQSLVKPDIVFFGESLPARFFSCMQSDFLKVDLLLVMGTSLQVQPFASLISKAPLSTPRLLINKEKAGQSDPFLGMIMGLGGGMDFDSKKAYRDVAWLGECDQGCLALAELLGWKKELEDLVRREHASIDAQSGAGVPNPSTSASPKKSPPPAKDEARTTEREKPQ


How the values were obtained:
Sirt2 [1] = target: T1, Sirt2; test: HPLC delipoylation assay of lipoylated peptides with Sirt2; assay type: biochemical; conditions: Sirt2 + NAD+, 37° C., monitored at 280 nm after 40 min
Description: A total of 11 lipoylated peptides (KAlip-1 to KAlip-11) were synthesised. The peptide sequences were selected from proteins that have been reported as being lipoylated (PDH, KDH, BCKDH, and GCV) and non-lipoylated proteins (e.g., histone). The peptides were synthesized with a standard Fmoc solid phase synthesis approach and characterized by LC-MS. The delipoylation activity was then determined by an HPLC assay. Compared with non-putative peptides, putative lipoylated peptides appeared to be more efficiently hydrolyzed by Sirt2. For example, the delipoylated product of KAlip-1 (derived from histone) after 40 min was determined to be 59%, which is less than that of putative lipoylated substrates such as KAlip-5 and KAlip-6 (derived from PDH).
The lipoylated peptides KAlip-1 to -11 were incubated with sirtuin and cofactor NAD+ at 37° C. in 20 mM HEPES buffer (pH 8.0) containing 150 mM NaCl, 1 mM MgCl2, and 2.7 mM KCl. The reaction volume was set to 50 μL. At each specific reaction time point, the reaction mixtures were quenched by adding 250 μL of methanol. The reactions were vortexed and centrifuged. Supernatant was collected and then analysed by reverse phase HPLC. The new peak generated was collected for ESI-MS or MALDI-TOF-MS analysis directly.

Sirt2 [2] = target: T1, Sirt2; test: In-gel fluorescence photo-crosslinking labelling of recombinant Sirt2; assay type: binding; conditions: competition with probe KPlip
Description: The labelling efficiency of KPlip with recombinant Sirt2 was investigated. The Sirt2 enzyme was first incubated with either KPlip or a negative control probe, KPlip-C(lacking lipoylation), followed by 15 min of UV irradiation. Following click chemistry with rhodamine azide (Rh—N3), the reaction mixtures were resolved by SDS-PAGE and analysed by in-gel fluorescence scanning.
A further selectivity study was performed. […] To examine whether lipoic acid of KPlip forms a disulfide bond with cysteine residues in Sirt2, excessive reducing reagent TCEP was added to the solution containing Sirt2 and KPlip prior to UV irradiation.
20 μM azide reagent was added to the protein samples labelled by KPlip and KPlip-C. Tris(2-carboxyethyl)phosphine (0.4 mM), tris(3-hydroxypropyltriazolylmethyl)amine (40 μM), and CuSO 4 (0.4 mM) were then added. The reaction was kept at room temperature for 2 h.
After click chemistry reaction with rhodamine-azide, chilled acetone was added to the reaction mixtures. The reaction was then placed in a −20° C. freezer for 1 h to precipitate the proteins. The pellets were washed with cold methanol and air-dried. Finally, they were redissolved in 1×SDS loading buffer by heating at 95° C. for 10 min and then resolved by SDS-PAGE. The labelled proteins were visualized using a FLA-9000 Fujifilm scanner (Ex=532 nm).

[3] = substrate: CSCC[C@H](NC(=O)[C@H](C)NC(=O)[C@H](CCC(=O)O)NC(=O)[C@@H](N)C(C)C)C(=O)N[C@@H](CCCCNC(=O)CCCCC1CCSS1)C(=O)N[C@@H](CC(C)C)C(=O)N[C@@H](CCSC)C(=O)N[C@@H](CC(N)=O)C(=O)N[C@@H](CCC(=O)O)C(=O)N[C@@H](Cc1c[nH]c2ccccc12)C(=O)N[C@@H](Cc1c[nH]c2ccccc12)C(=O)O; test: Steady-state kinetic study of lipoylated peptides with Sirt2 (HPLC); assay type: biochemical; conditions: other: Sirt2, 400 μM NAD+, HEPES pH 8.0, 37° C.
Description: (§1) The delipoylation activity of HDAC8 was further examined using KAlip-5 and KAlip-1. […] A more detailed assessment of the enzymatic delipoylation reaction was performed. Time-dependent experiments and steady-state kinetics studies were conducted of KAlip-1, 5, 8, and 10 with Sirt2 (Table 1).
(§2) To determine the values of kcat, and Km, purified Sirt2 with 400 μM NAD+ was incubated with different concentrations of lipoylated peptide (0-120 μM) in 20 mM HEPES buffer (pH 8.0) containing 150 mM NaCl, 1 mM MgCl2, and 2.7 mM KCl at 37° C. for 10 min (KAlip-1 and KAlip-10) or 5 min (KAlip-5 and KAlip-8). The reactions were quenched by adding 250 μL of methanol and then applied for HPLC analysis with a linear gradient of 5% to 85% B (acetonitrile) for 30 min. The generated delipoylated product was quantified based on the peak area monitored at 280 nm. The kcat, and Km, values were calculated by curve-fitting Vinitiai/[E] versus [S]. The experiments were conducted in duplicate.

[4] = substrate: CC[C@H](C)[C@H](NC(=O)[C@@H](NC(=O)[C@H](C)NC(=O)[C@H](CCCCNC(=O)CCCCC1CCSS1)NC(=O)[C@H](CC(=O)O)NC(=O)[C@@H](NC(=O)[C@H](CCC(=O)O)NC(=O)[C@@H](NC(=O)[C@@H](N)CCC(=O)O)[C@@H](C)CC)[C@@H](C)O)[C@@H](C)O)C(=O)NCC(=O)N[C@@H](Cc1c[nH]c2ccccc12)C(=O)N[C@@H](Cc1c[nH]c2ccccc12)C(=O)O; test: as above; assay type: biochemical; conditions: other: Sirt2, 400 μM NAD+, HEPES pH 8.0, 37° C.
Description: as §1, §2

[5] = substrate: CC(C)[C@H](N)C(=O)N[C@@H](CCC(N)=O)C(=O)N[C@@H](CO)C(=O)N[C@@H](CC(=O)O)C(=O)N[C@@H](CCCCNC(=O)CCCCC1CCSS1)C(=O)N[C@@H](C)C(=O)N[C@@H](CO)C(=O)N[C@H](C(=O)N[C@H](C(=O)N[C@@H](Cc1c[nH]c2ccccc12)C(=O)N[C@@H](Cc1c[nH]c2ccccc12)C(=O)O)[C@@H](C)O)C(C)C; test: as above; assay type: biochemical; conditions: other: Sirt2, 400 μM NAD+, HEPES pH 8.0, 37° C.
Description: as §1, §2

[6] = substrate: C[C@H](NC(=O)[C@@H](NC(=O)[C@H](CCC(N)=O)NC(=O)[C@@H](N)CCCCN)[C@@H](C)O)C(=O)N[C@@H](CCCNC(=N)N)C(=O)N[C@@H](CCCCNC(=O)CCCCC1CCSS1)C(=O)N[C@@H](CO)C(=O)N[C@H](C(=O)NCC(=O)NCC(=O)N[C@@H](Cc1c[nH]c2ccccc12)C(=O)N[C@@H](Cc1c[nH]c2ccccc12)C(=O)O)[C@@H](C)O; test: as above; assay type: biochemical; conditions: other: Sirt2, 400 μM NAD+, HEPES pH 8.0, 37° C.
Description: as §1, §2

| Molecule | Delipoylation product (HPLC yield of delipoylated product) (Sirt2 [1]) [%] | other results |
| --- | --- | --- |
| C[C@H](NC(=O)[C@@H](NC(=O)[C@H](CCC(N)=O)NC(=O)[C@@H](N)CCCCN)[C@@H](C)O)C(=O)N[C@@H](CCCNC(=N)N)C(=O)N[C@@H](CCCCNC(=O)CCCCC1CCSS1)C(=O)N[C@@H](CO)C(=O)N[C@H](C(=O)NCC(=O)NCC(=O)N[C@@H](Cc1c[nH]c2ccccc12)C(=O)N[C@@H](Cc1c[nH]c2ccccc12)C(=O)O)[C@@H](C)O (stereo partly drawn) [KAlip-1, KQTARK(lip)STGGWW] (H-KQTARK(Lipoyl(6ξ))STGGWW-OH) | 59 | – |
| SDPIIK(lip)GSGTWW [KAlip-3] | 98 | – |
| SGASEK(lip)DIVHSGWW [KAlip-4] | 100 | – |
| VKSK(lip)ATNL WW [KAlip-2] | 97 | – |
| VQSDKlipASVT [lipoylated peptide competitor] | – | Inhibition of KPlip labelling of Sirt2 (Sirt2 [2]): can be inhibited |
| Sirt2 (Homo sapiens) (protein, made in house) MAEPDPSHPLETQAGKVQEAQDSDSDSEGGAAGGEADMDFLRNLFSQTLSLGSQKERLLDELTLEGVARYMQSERCRRVICLVGAGISTSAGIPDFRSPSTGLYDNLEKYHLPYPEAIFEISYFKKHPEPFFALAKELYPGQFKPTICHYFMRLLKDKGLLLRCYTQNIDTLERIAGLEQEDLVEAHGTFYTSHCVSASCRHEYPLSWMKEKIFSEVTPKCEDCQSLVKPDIVFFGESLPARFFSCMQSDFLKVDLLLVMGTSLQVQPFASLISKAPLSTPRLLINKEKAGQSDPFLGMIMGLGGGMDFDSKKAYRDVAWLGECDQGCLALAELLGWKKELEDLVRREHASIDAQSGAGVPNPSTSASPKKSPPPAKDEARTTEREKPQ | – | Km [3]: 13.5 µM; Km [4]: 18.9 µM; Km [5]: 26.2 ± 3.3 µM; Km [6]: 9.7 ± 0.2 µM |

Continued, in another order:

| Delipoylation product (HPLC yield of delipoylated product) (Sirt2 [1]) [%] | Molecule | other results |
| --- | --- | --- |
| 100 | CC[C@H](C)[C@H](NC(=O)[C@@H](NC(=O)[C@H](C)NC(=O)[C@H](CCCCNC(=O)CCCCC1CCSS1)NC(=O)[C@H](CC(=O)O)NC(=O)[C@@H](NC(=O)[C@H](CCC(=O)O)NC(=O)[C@@H](NC(=O)[C@@H](N)CCC(=O)O)[C@@H](C)CC)[C@@H](C)O)[C@@H](C)O)C(=O)NCC(=O)N[C@@H](Cc1c[nH]c2ccccc12)C(=O)N[C@@H](Cc1c[nH]c2ccccc12)C(=O)O (stereo partly drawn) [KAlip-5, EIETDK(lip)ATIGWW] (H-EIETDK(Lipoyl(6ξ))ATIGWW-OH) | – |
| 100 | CC(C)[C@H](N)C(=O)N[C@@H](CCC(N)=O)C(=O)N[C@@H](CO)C(=O)N[C@@H](CC(=O)O)C(=O)N[C@@H](CCCCNC(=O)CCCCC1CCSS1)C(=O)N[C@@H](C)C(=O)N[C@@H](CO)C(=O)N[C@H](C(=O)N[C@H](C(=O)N[C@@H](Cc1c[nH]c2ccccc12)C(=O)N[C@@H](Cc1c[nH]c2ccccc12)C(=O)O)[C@@H](C)O)C(C)C (stereo partly drawn) [KAlip-8, VQSD K(lip)ASVTWW] (H-VQSDK(Lipoyl(6ξ))ASVTWW-OH) | – |
| 94 | CSCC[C@H](NC(=O)[C@H](C)NC(=O)[C@H](CCC(=O)O)NC(=O)[C@@H](N)C(C)C)C(=O)N[C@@H](CCCCNC(=O)CCCCC1CCSS1)C(=O)N[C@@H](CC(C)C)C(=O)N[C@@H](CCSC)C(=O)N[C@@H](CC(N)=O)C(=O)N[C@@H](CCC(=O)O)C(=O)N[C@@H](Cc1c[nH]c2ccccc12)C(=O)N[C@@H](Cc1c[nH]c2ccccc12)C(=O)O (stereo partly drawn) [KAlip-11, VEAMK(lip)LMNE WW] (H-VEAMK(Lipoyl(6ξ))LMNEWW-OH) | – |
| 100 | EALPKK(lip) TGGPWW [KAlip-9] | – |
| 65 | EIETDK(lip) TSVQWW [KAlip-7] | – |
| 100 | EIETDK(lip)AVVTWW [KAlip-6] | – |
